These results are taken from PubChem BioAssay AID1996.

In brackets after ≈: the same amount, converted by molar mass.

For orientation: kinetic solubility means solubility judged after dilution from a stock solution rather than from solid.

The conditions of this series: buffer; pH 7.4; 200.0 µM.
Consider `CC(C)Oc1cccc(C(=O)C2CCCN(C3CCOCC3)C2)c1` (configuration not stated), for which the solubility (kinetic) turned out to be 31 µg/mL (≈ 93.5 µM).
`O=C(c1ccccc1CCc1ccccc1)N1CCCC1` displayed a solubility (kinetic) of 40.5 µg/mL (≈ 145 µM).
As for `O=C(Nc1cnccc1C(F)(F)F)NC1CCCCC1`, the solubility (kinetic) is 43.1 µg/mL (≈ 150 µM).
As for `CN(C(=S)Nc1ccc(SC(F)F)cc1)c1ccc(O)cc1`, the solubility (kinetic) was > 51.1 µg/mL.
Regarding `Cc1ccc(NC(=O)COC(=O)c2nn(C)cc2Cl)cc1`, the solubility (kinetic) was > 46.2 µg/mL.
`CCCCn1c(O)c(C(C)=NCc2ccc3c(c2)OCO3)c(=O)[nH]c1=O` returned a kinetic solubility of 0.6 µg/mL (≈ 1.67 µM).
Then `O=C(Nc1cc(S(=O)(=O)N2CCOCC2)ccc1Cl)c1ccncc1`, with > 57.3 µg/mL; and `Clc1cccc(Cl)c1CO/N=C/c1cccs1`, with > 42.9 µg/mL.
As for `COc1ccccc1NC(=O)c1cc(Cl)nnc1Cl`, the kinetic solubility was > 44.7 µg/mL.
In the case of `Cc1ccc(S(=O)(=O)N(Cc2ccccc2)C(C)C)cc1`, the solubility (kinetic) stood at 5 µg/mL (≈ 16.5 µM).
In the case of `Cc1ccc(NC(=S)NC(=O)C2CCCC2)cc1C`, the solubility (kinetic) was found to be 0.5 µg/mL (≈ 1.81 µM).
For `COc1ccc(N2CCCC2=N)c(OC)c1.Cl`, the kinetic solubility was > 38.5 µg/mL.
In turn, `Cc1ccc2nc(NC(=O)COC(=O)c3ccccn3)sc2c1` returned a solubility (kinetic) of 32.1 µg/mL (≈ 98.1 µM).
Then `COc1ccc(NC(=S)N2CCCCC2c2cccnc2)cc1` (configuration not stated), with 49 µg/mL (≈ 150 µM); and `CCN(CC(=O)Nc1ccc(C(C)=O)cc1)CC(=O)Nc1ccc2c(c1)OCCO2.O=C(O)C(=O)O`, with > 75.2 µg/mL.
Take `O=C(O)c1ccc2c(c1)CCCN2`: the kinetic solubility was > 26.6 µg/mL.
Then `S=C(Nc1cccnc1)Nc1ccccc1Br`, with > 46.2 µg/mL.
As for `O=C(NS(=O)(=O)Nc1ccccn1)c1c[nH]c2ccccc12`, the kinetic solubility was > 47.4 µg/mL.
As to `Cn1c(=O)c(C(=O)NCc2ccccc2)c(O)c2ccccc21`, the solubility (kinetic) was < 0.3 µg/mL.
`O=[N+]([O-])c1ccc(Cl)cc1NCC1CCCO1` (configuration not stated) displayed a kinetic solubility of 28 µg/mL (≈ 109 µM).
`O=C(Cn1cc(C(F)(F)F)ccc1=O)N/N=C/c1ccccc1`: the solubility (kinetic) is > 48.5 µg/mL.
Turning to `COc1cc(OC)cc(C2=NC3(CCC(C)CC3)NC2=S)c1` (configuration not stated), the solubility (kinetic) was 2.2 µg/mL (≈ 6.91 µM).
Then `CCOC(=O)c1ccc(NC(=O)NCc2ccccc2OC)cc1`, with 2.4 µg/mL (≈ 7.31 µM); and `O=C(Cn1cc([N+](=O)[O-])ccc1=O)N1CCc2ccccc2C1`, with > 47 µg/mL; and `O=C(Nc1ccc2ccccc2c1)c1cc(F)c(F)cc1Cl`, with < 0.7 µg/mL.
Then `CC1CCN(C(=S)NC(=O)c2ccc(C(C)(C)C)cc2)CC1`, with 3.1 µg/mL (≈ 9.73 µM); and `Cc1cc(C)cc(C(=O)Oc2cc(C)[nH]c(=O)c2[N+](=O)[O-])c1`, with > 45.3 µg/mL.
The compound `CN1C(=O)C(=Cc2cccnc2)C(=O)N(C)C1=O` gave a kinetic solubility of 32.3 µg/mL (≈ 132 µM).
For `Cc1ccc(S(=O)(=O)NCc2ccncc2)cc1C`, the kinetic solubility was > 41.5 µg/mL.
As for `COc1ccc(NS(=O)(=O)c2ccc(C(=O)N3CCCCCC3)cc2)cc1`, the kinetic solubility is > 58.3 µg/mL.
Then `COc1ccc(CCC2CCNCC2)cc1.Cl`, with > 38.4 µg/mL; and `COc1ccc(NC(=O)/C=N/O)cc1`, with > 29.1 µg/mL; and `CCn1c(=O)c(C(=O)NCc2ccccc2OC)c(O)c2ccccc21`, with 0.7 µg/mL (≈ 1.99 µM).
Then `Cc1cccc(/C(N)=N/OC(=O)CCCc2ccccc2)c1`, with 1.8 µg/mL (≈ 6.07 µM).
Then `COc1ccsc1NC(=O)OCc1ccc(Cl)cc1`, with 19.3 µg/mL (≈ 64.8 µM); and `CCc1ccc(OCC(=O)Nc2ccc3oc(=O)ccc3c2)cc1`, with 1.5 µg/mL (≈ 4.64 µM); and `COc1ccc(-c2nc3ccccc3c(=O)[nH]2)cc1`, with 2.2 µg/mL (≈ 8.72 µM).
Take `COc1ccc(NC(=S)NC(=O)/C=C/c2ccccc2)cc1`: the kinetic solubility was < 0.3 µg/mL.
Then `CCOc1ccc2nc(SCC(=O)NCC3CCCO3)sc2c1` (configuration not stated), with > 52.9 µg/mL.
Take `CCN(CC)CC(O)Cn1c(-c2ccccc2Cl)nc2ccccc21` (configuration not stated): the solubility (kinetic) was > 53.7 µg/mL.
Then `Fc1ccc2nc3c(nc2c1)CCCC3`, with 13.3 µg/mL (≈ 65.8 µM).
Then `Cc1cc(C)c(C(=O)Nc2ccc(C)c(C)c2)c(CC(C)(C)C(=O)O)c1`, with > 53 µg/mL.
